Structures are written as SMILES.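 A five-concentration, 48-hour dose response in 96-well plates underlies each endpoint, interpolated linearly between surrounding concentrations. GI50: concentration for 50% inhibition of growth. TGI: total growth inhibition.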

Some test systems named below: CAKI-1 renal; OVCAR-4 ovarian; UACC-62 melanoma; U251 CNS; MOLT-4 leukemia; SK-MEL-28 melanoma; NCI-H460 lung; IGROV1 ovarian; SNB-75 CNS; RXF 393 renal.
Assay in all cases: NCI tumour cell line growth inhibition, 48 h

In the case of `Cc1cc(Cl)cc2c1NC(=O)C2(O)CC(=O)c1ccc(Br)cc1` (stereo not drawn), the TGI in the assay on CAKI-1 renal was above 100 µM; in the assay on OVCAR-4 ovarian, above 54.6 µM; with UACC-62 melanoma it was 56.2 µM; in the assay on U251 CNS, above 100 µM; in the assay with MOLT-4 leukemia it was 46.5 µM; in the assay on SK-MEL-28 melanoma it was 97.9 µM. The TGI in the assay on NCI-H460 lung was above 100 µM; in the assay on IGROV1 ovarian, above 100 µM; in the assay on SNB-75 CNS, above 100 µM; in the assay on RXF 393 renal, 56.9 µM.
Turning to `CC(C)(C)c1ccc(C2CC(=O)C3=C(C2)Nc2ccccc2N(C(=O)c2ccccc2Cl)C3c2ccc(F)cc2)cc1` (stereo not drawn), the GI50 in the assay on CAKI-1 renal, in the assay with OVCAR-4 ovarian, in the assay with UACC-62 melanoma, in the assay on U251 CNS, with SK-MEL-28 melanoma and with NCI-H460 lung was above 100 µM throughout. The GI50 in the assay on IGROV1 ovarian, with SNB-75 CNS and in the assay on RXF 393 renal was above 100 µM in each case. Besides, the TGI with CAKI-1 renal, with OVCAR-4 ovarian, in the assay on UACC-62 melanoma, in the assay on U251 CNS, with SK-MEL-28 melanoma and in the assay with NCI-H460 lung was above 100 µM throughout. The TGI in the assay on IGROV1 ovarian, in the assay on SNB-75 CNS and in the assay with RXF 393 renal was above 100 µM each time.
Consider `CC(C)[P+](c1ccccc1)(c1ccccc1)c1ccccc1`, for which the GI50 in the assay on CAKI-1 renal is 50.7 µM; in the assay on OVCAR-4 ovarian, 3.7 µM; in the assay on UACC-62 melanoma, 4.2 µM; in the assay on U251 CNS, 4.11 µM; in the assay with MOLT-4 leukemia, 6.9 µM; with SK-MEL-28 melanoma it was 21.2 µM. For the same compound, the GI50 in the assay with NCI-H460 lung was 6.92 µM; in the assay with IGROV1 ovarian, 14.3 µM; with SNB-75 CNS it was 4.81 µM; in the assay with RXF 393 renal it was 27.4 µM. Also, the TGI in the assay with CAKI-1 renal was above 100 µM; in the assay with OVCAR-4 ovarian, 94.6 µM; in the assay on UACC-62 melanoma it was above 100 µM; in the assay with U251 CNS, above 100 µM; in the assay with MOLT-4 leukemia it was above 100 µM; with SK-MEL-28 melanoma, above 100 µM. Besides, the TGI with NCI-H460 lung is above 100 µM; in the assay on IGROV1 ovarian it was above 100 µM; in the assay on SNB-75 CNS, 66 µM; with RXF 393 renal, above 100 µM.
For `Cc1c(Nc2nccc3cc(CN4CC[C@@H](O)C4)cnc23)cccc1-c1cccc(-c2nc3cc(CN4CC[C@@H](C(=O)O)C4)cc(C#N)c3o2)c1C`, the GI50 in the assay on CAKI-1 renal is above 100 µM; with OVCAR-4 ovarian, 14.3 µM; in the assay on UACC-62 melanoma, 15.7 µM; in the assay with U251 CNS it was 12.1 µM; with MOLT-4 leukemia it was 2.72 µM; in the assay with SK-MEL-28 melanoma, 11.6 µM. The GI50 in the assay with NCI-H460 lung is 7.15 µM; in the assay on IGROV1 ovarian, 8.45 µM; in the assay on SNB-75 CNS, 15.1 µM; in the assay with RXF 393 renal it was 2 µM. The TGI in the assay on CAKI-1 renal was above 100 µM; in the assay with OVCAR-4 ovarian, above 100 µM; with UACC-62 melanoma it was 38.1 µM; with U251 CNS, 26.8 µM; in the assay with MOLT-4 leukemia, 9.08 µM; with SK-MEL-28 melanoma, 27.8 µM. The TGI with NCI-H460 lung is 21.8 µM; with IGROV1 ovarian it was above 100 µM; in the assay on SNB-75 CNS it was above 100 µM; with RXF 393 renal it was 5.41 µM.
With `CN1CCN(C(=O)c2ccc(NC(=O)Nc3ccc(-c4nc(N5CCOCC5)c5cccn5n4)cc3)cc2)CC1`, the GI50 in the assay with CAKI-1 renal is 0.542 µM; in the assay on OVCAR-4 ovarian, 0.0149 µM; in the assay on UACC-62 melanoma it was 0.034 µM; with U251 CNS, 0.0464 µM; in the assay with MOLT-4 leukemia it was 0.0443 µM; with SK-MEL-28 melanoma, 0.0465 µM. The GI50 in the assay with NCI-H460 lung was 0.0498 µM; in the assay on IGROV1 ovarian, 0.0255 µM; in the assay with SNB-75 CNS, 0.0134 µM; in the assay on RXF 393 renal, 0.0307 µM. The TGI with CAKI-1 renal stood at 10.7 µM; with OVCAR-4 ovarian it was 0.095 µM; in the assay on UACC-62 melanoma, 0.189 µM; in the assay on U251 CNS, 10.3 µM; in the assay with MOLT-4 leukemia, 2.11 µM; in the assay with SK-MEL-28 melanoma, 0.77 µM. Further, the TGI is 12 µM with NCI-H460 lung, 1.2 µM in the assay with IGROV1 ovarian, 0.0684 µM in the assay with SNB-75 CNS and 0.175 µM in the assay on RXF 393 renal.
With `NC1=NC(SCc2ccccc2CCl)c2ncn(Cc3ccccc3CCl)c2N1` (stereo not drawn), the GI50 with CAKI-1 renal is 1.77 µM; in the assay on OVCAR-4 ovarian, 2.83 µM; in the assay on UACC-62 melanoma, 2.54 µM; with U251 CNS, 1.45 µM; in the assay on MOLT-4 leukemia, 2.04 µM; in the assay on SK-MEL-28 melanoma, 2.28 µM. In addition, the GI50 was 2.53 µM with NCI-H460 lung, 1.52 µM in the assay on IGROV1 ovarian, 2.06 µM in the assay with SNB-75 CNS and 1.48 µM in the assay with RXF 393 renal. Moreover, the TGI in the assay on CAKI-1 renal was determined as 3.82 µM; in the assay on OVCAR-4 ovarian, 10.2 µM; in the assay on UACC-62 melanoma it was 10.4 µM; in the assay on U251 CNS it was 2.82 µM; in the assay on MOLT-4 leukemia it was 6.03 µM; in the assay on SK-MEL-28 melanoma, 6.97 µM. Besides, the TGI in the assay with NCI-H460 lung is 6.69 µM; in the assay with IGROV1 ovarian, 3.57 µM; in the assay on SNB-75 CNS, 5.47 µM; in the assay on RXF 393 renal it was 2.85 µM.
For the compound `CCN1CCN(c2cc(C(=O)Nc3cccc(Nc4ccc5c(OC)cccc5n4)c3)cc(C(F)(F)F)c2)CC1`, the GI50 with CAKI-1 renal was 0.917 µM; in the assay on OVCAR-4 ovarian, 1.57 µM; with UACC-62 melanoma, 1.5 µM; in the assay with U251 CNS, 1.36 µM; in the assay on MOLT-4 leukemia, 0.616 µM; in the assay with SK-MEL-28 melanoma, 0.846 µM. For the same compound, the GI50 with NCI-H460 lung is 1.34 µM; in the assay with IGROV1 ovarian, 0.924 µM; in the assay with SNB-75 CNS, 1.05 µM; in the assay on RXF 393 renal it was 0.918 µM. The TGI in the assay with CAKI-1 renal was 4.97 µM; in the assay on OVCAR-4 ovarian, 9.32 µM; in the assay on UACC-62 melanoma, 5.77 µM; in the assay with U251 CNS, 4.94 µM; in the assay with MOLT-4 leukemia, 12.3 µM; in the assay on SK-MEL-28 melanoma, 2.2 µM. Also, the TGI in the assay on NCI-H460 lung amounted to 5.32 µM; with IGROV1 ovarian, 5.23 µM; in the assay on SNB-75 CNS it was 5.36 µM; with RXF 393 renal, 4.86 µM.
Consider `Nc1c(C(=O)c2cccc(C(O)CO)c2)cnn1-c1ccc(F)cc1` (stereo not drawn), for which the GI50 in the assay on CAKI-1 renal, in the assay with OVCAR-4 ovarian, in the assay on UACC-62 melanoma, in the assay on U251 CNS, with MOLT-4 leukemia and in the assay with SK-MEL-28 melanoma was above 25 µM in each case. Also, the GI50 with NCI-H460 lung, with IGROV1 ovarian, in the assay on SNB-75 CNS and in the assay with RXF 393 renal was above 25 µM each time. Moreover, the TGI in the assay with CAKI-1 renal, with OVCAR-4 ovarian, with UACC-62 melanoma, with U251 CNS, with MOLT-4 leukemia and in the assay on SK-MEL-28 melanoma was above 25 µM in each case. The TGI in the assay on NCI-H460 lung, in the assay with IGROV1 ovarian, in the assay with SNB-75 CNS and with RXF 393 renal was above 25 µM in each case.

These data come from PubChem BioAssay (NCI).
